“Also recorded” adds a separate entry of the source.
What was measured:
[1] = tested on: Rho/M4NC-β2 TM II–VII (TM II–VII region from the β2-adrenergic receptor in pCMV-Rho/M4NC); assay: Single-cell FURA-2 Ca2+ imaging, HEK-293 cells co-transfected with Rho/M4NC-β2 TM II–VII and Gα15,16; format: cell-based, human
Protocol: HEK-293 cells (obtained from the ATCC) were grown in DMEM supplemented with 10% fetal bovine serum, penicillin (100 U/ml), streptomycin (100 μg/ml) and L-glutamine (2 mM) in 5% CO2. […] After 5 to 7 hr incubation, the cells were washed once with PBS containing 0.5 mM EDTA and 10% DMSO, then with PBS before continuing growth in regular media for 40–50 hr.
Efficient screening of expressed olfactory receptors with a large number of ligands by functional analysis requires a robust and sensitive assay system. […] In this reporter system, (olfactory) receptor activation leads to the generation of an IP3-mediated increase in intracellular Ca^2+, which can be measured at the single-cell level with high sensitivity and good temporal resolution using the dye FURA-2 and radiofluorometric imaging.
A construct with the TM II–VII region from the β2-adrenergic receptor inserted in the pCMV-Rho/M4NC vector (Rho/M4NC-β2 TM II–VII) was co-transfected with Gα15,16 into HEK-293 cells. […] Images of fluorescent cells were obtained on a Zeiss 510 confocal microscope with excitation at 488 nm.
These transfected cells were then tested for their ability to functionally respond to ligand-receptor binding. The ligand, the adrenergic agonist isoproterenol, was “bath” applied to the transfected cells and single cell Ca^2+-imaging was performed. Cells were pre-loaded with the Ca^2+-sensitive fluorescent dye FURA-2 AM (Molecular Probes) by bathing in serum-free DMEM containing 4 μM of the membrane permeant chemical for 1 hr at 37° C., then washed with a standard bath solution (130 mM NaCl, 2 mM CaCl2, 5 mM KCl, 10 mM glucose, 10 mM Na.HEPES/pH 7.4 at room temperature). […] Acetylcholine was applied at the end of each experiment at 10 μM for 15–20 seconds. […] At 5-second intervals, the cells were sequentially illuminated for less than 100 ms, first at 340 nm and then at 380 nm. Fluorescence emission at 510 nm was monitored for each excitation wavelength via an intensified CCD camera. Averaged pixel intensities within 40 to 100 regions of interest, corresponding to 40 to 100 individual cells, were digitized and stored on a computer. Attofluor-Ratiovision software (Atto Instruments) was used to determine the Ca^2+-dependent fluorescence signal expressed as the F340/F380 ratio.

[2] = tested on: endogenous β-adrenergic receptors; assay: Single-cell FURA-2 Ca2+ imaging, HEK-293 cells transfected with the G protein subunits (Gα15,16) alone; format: cell-based, human; details: no receptor construct
Protocol: (§1) HEK-293 cells (obtained from the ATCC) were grown in DMEM supplemented with 10% fetal bovine serum, penicillin (100 U/ml), streptomycin (100 μg/ml) and L-glutamine (2 mM) in 5% CO2. Before transfection, the cells were seeded onto poly-L-lysine-coated 10.5×35×0.17 mm glass coverslips (Bellco) placed in the 60 mm culture dishes. Calcium phosphate-mediated transfections were performed in a 60 mm dish with 3 to 4 μg of receptor construct DNA, 1 μg of pCIS Gα 15 and Gα16 expression vector (Offermanns (1995) supra). 2 μg of pBluescript carrier DNA, and 0.3 μg of pRSV-T antigen expression vector (Gorman (1990) DNA and Protein Eng. Tech. 2:3–9). After 5 to 7 hr incubation, the cells were washed once with PBS containing 0.5 mM EDTA and 10% DMSO, then with PBS before continuing growth in regular media for 40–50 hr.
These transfected cells were then tested for their ability to functionally respond to ligand-receptor binding. The ligand, the adrenergic agonist isoproterenol, was “bath” applied to the transfected cells and single cell Ca^2+-imaging was performed. […] Fluorescence emission at 510 nm was monitored for each excitation wavelength via an intensified CCD camera. […] Attofluor-Ratiovision software (Atto Instruments) was used to determine the Ca^2+-dependent fluorescence signal expressed as the F340/F380 ratio. […]

[3] = tested on: full-length I-C6 receptor fused to translocation domain (rhodopsin tag); assay: Ca2+ imaging, full-length I-C6 receptor with rhodopsin tag in HEK-293 cells; format: cell-based, mouse
Protocol: PCR products were digested with PstI and BspEI restriction enzymes before size fractionation, purification and ligation into the pCMV-Rho/M4NC vector (see FIG. 1A). The vector ligation products were transformed into E. coli and 480 clones were placed in 96-well plates. […] Pools of cells from a single column of the plates (8 wells) were grown in a 50 ml culture and plasmid DNA prepared. Insert-containing vectors containing: the 5′-untranslated region of the rhodopsin gene, which included its coding region for the initiation methionine and the next 19 residues; joined to a full-length cDNA for a mouse olfactory receptor (M4 or I-C6), under the control of the CMV promoter, were also prepared. The full-length coding region of olfactory receptors mI7 and I-C6 were obtained by screening a mouse (129 SV/J) genomic phage (λFIX-II) library (2×10^6 independent clones) using ^32P-labeled DNA fragments (of TMII through VII sequence) of the respective receptors under stringent conditions (hybridized at 0.2×SSC at 65° C.). DNA fragments encoding the full-length receptors were cloned into pBluescript (Stratagene) and sequenced.
(§2) These transfected cells were then tested for their ability to functionally respond to ligand-receptor binding. The ligand, the adrenergic agonist isoproterenol, was “bath” applied to the transfected cells and single cell Ca^2+-imaging was performed. Cells were pre-loaded with the Ca^2+-sensitive fluorescent dye FURA-2 AM (Molecular Probes) by bathing in serum-free DMEM containing 4 μM of the membrane permeant chemical for 1 hr at 37° C., then washed with a standard bath solution (130 mM NaCl, 2 mM CaCl2, 5 mM KCl, 10 mM glucose, 10 mM Na.HEPES/pH 7.4 at room temperature). For each experiment, a glass coverslip with FURA-2 loaded HEK 293 cells was introduced into an open-topped, longitudinal microperfusion chamber (300 μl bath volume mounted on a Zeiss Axiovert 135 microscope equipped with an F Fluar 40×/1.30 oil-immersion lens. The cells were superfused with test solutions typically for 30 to 40 seconds (5 ml/application) and washed out with 5 ml of bath solution at the end of each application. Each test solution was freshly diluted and manually applied with a micropipette into the chamber. Because of this manual procedure, there could be several seconds of delay in actual application from electronic tick marks used to define the beginning of application in each graph. At the same time, the solution flow might not be completely laminar. In most cases, the onset of Ca2+ rise in response to a specific solution occurred within 15 seconds of the beginning of solution application, though longer delays were sometimes observed. Acetylcholine was applied at the end of each experiment at 10 μM for 15–20 seconds. Ratiometric Ca^2+ measurements were performed as described by Grynkiewicz (1985) 260:3440–3450, with modifications using the Zeiss/Attofluor-Ratiovision imaging system. At 5-second intervals, the cells were sequentially illuminated for less than 100 ms, first at 340 nm and then at 380 nm. Fluorescence emission at 510 nm was monitored for each excitation wavelength via an intensified CCD camera. Averaged pixel intensities within 40 to 100 regions of interest, corresponding to 40 to 100 individual cells, were digitized and stored on a computer. Attofluor-Ratiovision software (Atto Instruments) was used to determine the Ca^2+-dependent fluorescence signal expressed as the F340/F380 ratio.
To determine if these physiologic responses were caused by ligand interaction with a full-length 7-membrane receptor, a genomic clone of the entire I-C6 receptor coding sequence was isolated and used to make a chimeric molecule incorporating the tranlocation domain of the invention (the “rhodopsin tag” sequence). The full-length I-C6 receptor retained the same stereo-selectivity as a chimeric receptor construct whose only I-C6 sequence was the transmembrane domains II through VII (i.e., the odorant/ligand binding domain). […]

[4] = tested on: mouse olfactory receptor TM II–VII chimeric receptor library (pools of clones); assay: Ca2+ imaging screen of 80 library chimeric receptors (10 pools of eight constructs) against 26 odorants in HEK-293 cells with Gα15,16; format: cell-based; details: for response of a library receptor: micromolar concentrations, three receptors, respectively; for intracellular Ca2+ response of a clone pool: odorants applied sequentially
Protocol: as §1, §2
The 7-transmembrane domain region TM II–VII expressing vector libraries of the invention were expressed in this cell expression system. Various odorant were screened for their ability to generate a physiologic response in the form of a calcium transient, as above. Eighty plasmid clones arrayed in microtiter plates were pooled into 10 groups of eight constructs each, and co-transfected with Gα15,16 into HEK-293 cells. […]

[5] = tested on: I-C6 chimeric olfactory receptor (TM II–VII); assay: Ca2+ imaging, individual clone I-C6 (TM II–VII chimeric) in HEK-293 cells with Gα15,16; format: cell-based, mouse; details: (−) vs (+) isomer
Protocol: (§3) These transfected cells were then tested for their ability to functionally respond to ligand-receptor binding. The ligand, the adrenergic agonist isoproterenol, was “bath” applied to the transfected cells and single cell Ca^2+-imaging was performed. Cells were pre-loaded with the Ca^2+-sensitive fluorescent dye FURA-2 AM (Molecular Probes) by bathing in serum-free DMEM containing 4 μM of the membrane permeant chemical for 1 hr at 37° C., then washed with a standard bath solution (130 mM NaCl, 2 mM CaCl2, 5 mM KCl, 10 mM glucose, 10 mM Na.HEPES/pH 7.4 at room temperature). […] Fluorescence emission at 510 nm was monitored for each excitation wavelength via an intensified CCD camera. […] Attofluor-Ratiovision software (Atto Instruments) was used to determine the Ca^2+-dependent fluorescence signal expressed as the F340/F380 ratio. […]

[6] = tested on: I-G7 chimeric olfactory receptor; assay: Ca2+ imaging, individual clone I-G7 in HEK-293 cells with Gα15,16; format: cell-based, mouse; details: 10 μM
Protocol: These transfected cells were then tested for their ability to functionally respond to ligand-receptor binding. The ligand, the adrenergic agonist isoproterenol, was “bath” applied to the transfected cells and single cell Ca^2+-imaging was performed. Cells were pre-loaded with the Ca^2+-sensitive fluorescent dye FURA-2 AM (Molecular Probes) by bathing in serum-free DMEM containing 4 μM of the membrane permeant chemical for 1 hr at 37° C., then washed with a standard bath solution (130 mM NaCl, 2 mM CaCl2, 5 mM KCl, 10 mM glucose, 10 mM Na.HEPES/pH 7.4 at room temperature). For each experiment, a glass coverslip with FURA-2 loaded HEK 293 cells was introduced into an open-topped, longitudinal microperfusion chamber (300 μl bath volume mounted on a Zeiss Axiovert 135 microscope equipped with an F Fluar 40×/1.30 oil-immersion lens. The cells were superfused with test solutions typically for 30 to 40 seconds (5 ml/application) and washed out with 5 ml of bath solution at the end of each application. Each test solution was freshly diluted and manually applied with a micropipette into the chamber. Because of this manual procedure, there could be several seconds of delay in actual application from electronic tick marks used to define the beginning of application in each graph. At the same time, the solution flow might not be completely laminar. In most cases, the onset of Ca2+ rise in response to a specific solution occurred within 15 seconds of the beginning of solution application, though longer delays were sometimes observed. Acetylcholine was applied at the end of each experiment at 10 μM for 15–20 seconds. Ratiometric Ca^2+ measurements were performed as described by Grynkiewicz (1985) 260:3440–3450, with modifications using the Zeiss/Attofluor-Ratiovision imaging system. […] Fluorescence emission at 510 nm was monitored for each excitation wavelength via an intensified CCD camera. […] Attofluor-Ratiovision software (Atto Instruments) was used to determine the Ca^2+-dependent fluorescence signal expressed as the F340/F380 ratio. […]

[7] = tested on: I-D3 chimeric olfactory receptor; assay: Ca2+ imaging, individual clone I-D3 in HEK-293 cells with Gα15,16; format: cell-based, mouse
Protocol: as §3

[8] = control experiments lacking Gα15,16

CC(C)NCC(O)c1ccc(O)c(O)c1 (stereo not drawn) [isoproterenol]
intracellular Ca2+ response (FURA-2 F340/F380) ([1]; bath application, cells co-transfected with Gα15,16): transient increase in intracellular Ca^2+
Ca2+ response to a second application ([1]; second application (desensitization)): frequently failed to elicit a response
dependence of the Ca2+ transient on Gα15,16 ([1]; with vs without cotransfected Gα15,16): dependent on cotransfection with the Gα15,16 subunits
intracellular Ca2+ response [2]: small response

CC(C)=CCCC(C)CCO (single isomer, unassigned; (-)) [(−) citronellol]
intracellular Ca2+ response ([3]; 30 μM): only 30 μM (−) citronellyl bromide elicited a small response

C=C(C)C1CC=C(C)C(=O)C1 (stereo not drawn) [carvone]
response of a library receptor [4]: responded
intracellular Ca2+ response ([3]; 100 μM): no responses

CC(C)=CCCC(C)CC(=O)O (single isomer, unassigned; (-)) [(−) citronellic acid]
intracellular Ca2+ response ([3]; 30 μM): only 30 μM (−) citronellyl bromide elicited a small response

C=C(C)[C@H]1CC=C(C)CC1 [limonene]
response of a library receptor [4]: responded
intracellular Ca2+ response ([3]; 100 μM): no responses

CC(C)=CCCC(C)CC=O (single isomer, unassigned; (-)) [(−) citronellal]
intracellular Ca2+ response of a clone pool ([4]; 10 μM): transient increases in Ca^2+
response of a library receptor [4]: responded
qualitative rank order of potency for binding and activating the I-C6 receptor [3]: (−)citronellal>(+)citronellal, citronellyl bromide>28 other odorants
intracellular Ca2+ response ([3]; 1 μM): responding
stereo-selectivity of the Ca2+ response ([3]; (−) vs (+) isomer): preferred
intracellular Ca2+ response after a prior positive response ([3]; applied immediately after 30 μM (+) citronellal (desensitization)): lack of response
intracellular Ca2+ response [3, 8]: no response
stereo-selectivity of the Ca2+ response [5]: selective; also recorded: preferred

C=C(C)C1CC=C(C)CC1 (single isomer, unassigned; (+)) [(+) limonene]
intracellular Ca2+ response of a clone pool ([4]; 10 μM): transient increases in Ca^2+
intracellular Ca2+ response [6]: responded

CC(C)=CCCC(C)CC=O (single isomer, unassigned; (+)) [(+) citronellal]
intracellular Ca2+ response of a clone pool ([4]; 10 μM): absence of response
qualitative rank order of potency for binding and activating the I-C6 receptor [3]: (−)citronellal>(+)citronellal, citronellyl bromide>28 other odorants
intracellular Ca2+ response ([3]; 30 μM): elicit a response
intracellular Ca2+ response ([3]; 100 μM): elicit a response

(−) citral demethyl acetal
intracellular Ca2+ response ([3]; 30 μM): only 30 μM (−) citronellyl bromide elicited a small response

C=C(C)[C@H]1CC=C(C)C(=O)C1 [(+) carvone]
intracellular Ca2+ response of a clone pool ([4]; 10 μM): lack of response
intracellular Ca2+ response [7]: responsive

C=C(C)C1CC=C(C)C(=O)C1 (single isomer, unassigned; (-)) [(−) carvone]
intracellular Ca2+ response of a clone pool ([4]; 10 μM): transient increases in Ca^2+
Ca2+ response of a clone pool to a second application ([4]; 10 μM, second application): second response to (−) carvone could still be elicited
intracellular Ca2+ response [7]: responsive

CC(C)=CCCC(C)CCBr (single isomer, unassigned; (-)) [(−) citronellyl bromide]
qualitative rank order of potency for binding and activating the I-C6 receptor [3]: (−)citronellal>(+)citronellal, citronellyl bromide>28 other odorants
intracellular Ca2+ response ([3]; 30 μM): small response
intracellular Ca2+ response [3, 8]: no response

CC(C)=CCC/C(C)=C/C=O [+/− citral]
intracellular Ca2+ response ([3]; 30 μM): only 30 μM (−) citronellyl bromide elicited a small response

(−) limonene
Ca2+ response relative to the (+) isomer [6]: perhaps not as well
intracellular Ca2+ response [6]: responded
